According to patent US4766222A, “Novel class of acyl-derivatives of carnitine process for preparing same and therapeutic use thereof” (Sigma-Tau Industrie Farmacuetiche Riunite S.p.A., priority 1980, dated 1988):
Read-outs that look alike come from different tables or passages of the source.

Assays:
in vivo = type: in vivo; conditions: mouse, in vivo, ip; i.p. in mice; N = 5, K = 4; read-out: LD50 and fiducial limits
Description: (§1) The acute toxicity of the compounds of general formula (I) was investigated in mice using the Weil method (Weil C. S., Biometr. J. 8, 249, 1952).

[1] = test system: arrythmia induced by Aconitine in mice; test: animal or person; type: in vivo; conditions: for change in vivo at 100 mg/kg / change in vivo at 25 mg/kg / change in vivo at 40 mg/kg / change in vivo at 8.9 mg/kg / change in vivo at 50 mg/kg / change in vivo at 35 mg/kg / change in vivo at 20 mg/kg: Mus musculus, iv; for % increase of the latency time to onset of initial cardiac arrythmia / % increase of the latency time to onset of tachycardia: with respect to the control group
Protocol: The antiarrhythmic effect of the compounds was also investigated in mice according to the P. W. Nwangwu, T. Holcslow procedure (P. W. Nwangwu, T. L. Holcslow; Arch. Int. Pharmacodyn. 229, 219 (1977)). Using aconitine (5γ/ml) as arrhythmogenic agent, the changes in the cardiac rhythm of the animals were recorded and the onset time of initial arrhythmia and/or of ventricular tachycardia were used as end point.

[2] = test system: plasma cholesterol (Chol.) triglycerides (TG) and α-, β- and pre-β-lipoproteins; test: plasma cholesterol, triglycerides and lipoproteins in rats treated with olive oil; type: in vivo; conditions: olive oil 15 ml kg^-1, N = 6; for % Lipoproteins β: control 16.12 ± 1.48; for % Lipoproteins α: control 23.28 ± 2.19; for % Lipoproteins pre-β: control 56.45 ± 2.36; for Chol. (plasma cholesterol): control 96.18 ± 4.16; for TG (plasma triglycerides): control 215.36 ± 20.18
mice = test: in vivo; type: in vivo; conditions: i.p. in mice; N = 5, K = 4
Description: as §1

[3] = test system: rabbit's heart "in vitro"; test: cardiokinetic effect: contractile force of isolated rabbit heart (Langendorff) after anoxia; conditions: 10^-6 M; 10 minutes from the interruption of the anoxic period; control 26.93 ± 5.31
Protocol: The cardiokinetic effect was investigated on rabbit hearts isolated by the Langendorff method. […] The isometric contractions, electro-cardiogram and coronary flow were recorded using a "Battaglia-Rangoni" polygraph. By removing the oxygen from the perfusion fluid, metabolic damage was induced in the cardiac muscle, up to an 80% reduction in the cardiac contractile force. Under these conditions of prolonged anoxia the aerobic glycolysis of the myocardium is slowed down with attendant formation of acid catabolites due to both the accumulation of pyruvic acid and its conversion to lactic acid which cannot be utilized because of the depression of pyridine enzymes, such as LDH (lactodehydrogenase). This has repercussions on the anaerobic glycolysis affecting an ever increasing number of enzymes, accompanied by a progressive and increasingly critical exhaustion of the myocardium. Thus a whole series of cardiac muscle fatigue levels occurs which can be observed by the behaviour of the examined parameters, namely the contractile force, coronary flow, heart rate and cardiac rhythm. As soon as the contractile force was reduced by 80%, the perfusion fluid was once again oxygenated either without adding other compounds (controls) or with the addition of the compounds under examination.

[4] = read-out: % increase of the latency time to onset of initial cardiac arrythmia
[5] = read-out: % increase of the latency time to onset of tachycardia

C[N+](C)(C)CC(CC(=O)O)OC(=O)CC1C=CCC1 (centres unmarked) [2-cyclopenten ACAR]
LD50 (in vivo): 1200 mg/kg
change in vivo at 100 mg/kg [1, 4]: 40%
change in vivo at 100 mg/kg [1, 5]: 20%

CC(C)(O)C(=O)OC(CC(=O)O)C[N+](C)(C)C (centres unmarked) [2-hydroxy isobutyryl CAR]
LD50 (in vivo): 1470 mg/kg
change in vivo at 25 mg/kg [1, 4]: 55%
change in vivo at 25 mg/kg [1, 5]: 48%
% Lipoproteins β ([2]; 450 mg kg^-1 oral): 10.36 ± 1.12%
% Lipoproteins α ([2]; 450 mg kg^-1 oral): 27.19 ± 3.48%
% Lipoproteins pre-β ([2]; 450 mg kg^-1 oral): 48.36 ± 1.15%
Chol. (plasma cholesterol) ([2]; 450 mg kg^-1 oral): 75.03 ± 4.12 mg/100 ml
TG (plasma triglycerides) ([2]; 450 mg kg^-1 oral): 100.29 ± 12.48 mg/100 ml

CC(C)C(O)C(=O)OC(CC(=O)O)C[N+](C)(C)C (centres unmarked) [2-hydroxy isovaleryl CAR]
LD50 (in vivo): 1580 mg/kg
change in vivo at 40 mg/kg [1, 4]: 60%
change in vivo at 40 mg/kg [1, 5]: 30%

COC(=O)CCC(=O)OC(CC(=O)O)C[N+](C)(C)C (centres unmarked) [3-carbomethoxypropionyl CAR, 3-carbomethoxypropionyl carnitine chloride]
LD50 (in vivo): 985 mg/kg
change in vivo at 25 mg/kg [1, 4]: 65%
change in vivo at 25 mg/kg [1, 5]: 39%
% Lipoproteins β ([2]; 350 mg kg^-1 oral): 11.18 ± 1.15%
% Lipoproteins α ([2]; 350 mg kg^-1 oral): 34.17 ± 3.23%
% Lipoproteins pre-β ([2]; 350 mg kg^-1 oral): 50.03%
Chol. (plasma cholesterol) ([2]; 350 mg kg^-1 oral): 69.25 ± 3.26 mg/100 ml
TG (plasma triglycerides) ([2]; 350 mg kg^-1 oral): 88.15 ± 15.36 mg/100 ml

C=C[C@H]1C[N@@]2CC[C@H]1C[C@@H]2[C@@H](O)c1ccnc2ccc(OC)cc12 [Quinidine, reference compound]
change in vivo at 8.9 mg/kg [1, 4]: 50%
change in vivo at 8.9 mg/kg [1, 5]: 41.7%

C=CC(=O)OC(CC(=O)O)C[N+](C)(C)C (centres unmarked) [acrilyl-CAR]
LD50 (in vivo): 1380 mg/kg
change in vivo at 50 mg/kg [1, 4]: 45%
change in vivo at 50 mg/kg [1, 5]: 39%

C[N+](C)(C)CC(CC(=O)O)OC(=O)CC1CCCCC1 (centres unmarked) [cyclohexyl ACAR, cyclohexyl acetyl carnitine chloride]
LD50 (in vivo): 850 mg/kg
change in vivo at 35 mg/kg [1, 4]: 63%
change in vivo at 35 mg/kg [1, 5]: 44%
% Lipoproteins β ([2]; 400 mg kg^-1 oral): 12.15 ± 1.09%
% Lipoproteins α ([2]; 400 mg kg^-1 oral): 36.48 ± 2.36%
% Lipoproteins pre-β ([2]; 400 mg kg^-1 oral): 49.12%
Chol. (plasma cholesterol) ([2]; 400 mg kg^-1 oral): 85.15 ± 4.26 mg/100 ml
TG (plasma triglycerides) ([2]; 400 mg kg^-1 oral): 100.12 ± 15.16 mg/100 ml

CCOCC(=O)OC(CC(=O)O)C[N+](C)(C)C (centres unmarked) [ethoxy ACAR, ethoxy acetyl carnitine chloride]
LD50 (in vivo): 2120 mg/kg
change in vivo at 20 mg/kg [1, 4]: 60%
change in vivo at 20 mg/kg [1, 5]: 55%
% Lipoproteins β ([2]; 250 mg kg^-1 oral): 10.28 ± 1.52%
% Lipoproteins α ([2]; 250 mg kg^-1 oral): 37.15 ± 2.17%
% Lipoproteins pre-β ([2]; 250 mg kg^-1 oral): 42.15 ± 2.27%
Chol. (plasma cholesterol) ([2]; 250 mg kg^-1 oral): 70.26 ± 6.48 mg/100 ml
TG (plasma triglycerides) ([2]; 250 mg kg^-1 oral): 78.25 ± 10.12 mg/100 ml

CCOCC(=O)O[C@H](CC(=O)O)C[N+](C)(C)C.[Cl-] [ethoxyacetyl CAR]
LD50 and fiducial limits (mice): 760 (545-975) mg kg^-1
% increase of the latency time to onset of initial cardiac arrythmia ([1]; 100 mg kg^-1 i.v.): 40%
% increase of the latency time to onset of tachycardia ([1]; 100 mg kg^-1 i.v.): 20%
contractile force, mean ± ESM [3]: 62.25 ± 3.24%

CC(C=O)C(=O)OC(CC(=O)[O-])C[N+](C)(C)C (centres unmarked) [formyl propionyl CAR]
LD50 and fiducial limits (mice): 1010 (850-1170) mg kg^-1
% increase of the latency time to onset of initial cardiac arrythmia ([1]; 60 mg kg^-1 i.v.): 55%
% increase of the latency time to onset of tachycardia ([1]; 60 mg kg^-1 i.v.): 34%
contractile force, mean ± ESM [3]: 74.26 ± 4.15%

COCC(=O)OC(CC(=O)O)C[N+](C)(C)C (centres unmarked) [methoxy ACAR, methoxy acetyl carnitine chloride]
LD50 (in vivo): 1980 mg/kg
change in vivo at 25 mg/kg [1, 4]: 65%
change in vivo at 25 mg/kg [1, 5]: 50%

CC(C)(C)CC(=O)OC(CC(=O)O)C[N+](C)(C)C (centres unmarked) [tert-butyl ACAR]
LD50 (in vivo): 1120 mg/kg
change in vivo at 25 mg/kg [1, 4]: 59%
change in vivo at 25 mg/kg [1, 5]: 36%
% Lipoproteins β ([2]; 350 mg kg^-1 oral): 13.27 ± 1.12%
% Lipoproteins α ([2]; 350 mg kg^-1 oral): 31.12 ± 2.17%
% Lipoproteins pre-β ([2]; 350 mg kg^-1 oral): 51.36%
Chol. (plasma cholesterol) ([2]; 350 mg kg^-1 oral): 70.12 ± 3.24 mg/100 ml
TG (plasma triglycerides) ([2]; 350 mg kg^-1 oral): 99.36 ± 10.12 mg/100 ml

vinyl acetyl carnitine chloride [vinyl CAR]
LD50 and fiducial limits (mice): 1200 (800-1600) mg kg^-1
% increase of the latency time to onset of initial cardiac arrythmia ([1]; 38 mg kg^-1 i.v.): 53%
% increase of the latency time to onset of tachycardia ([1]; 38 mg kg^-1 i.v.): 41%
% Lipoproteins β ([2]; 300 mg kg^-1 oral): 14.13 ± 1.63%
% Lipoproteins α ([2]; 300 mg kg^-1 oral): 29.46 ± 3.15%
% Lipoproteins pre-β ([2]; 300 mg kg^-1 oral): 48.89 ± 2.96%
Chol. (plasma cholesterol) ([2]; 300 mg kg^-1 oral): 78.15 ± 6.16 mg/100 ml
TG (plasma triglycerides) ([2]; 300 mg kg^-1 oral): 112.15 ± 15.16 mg/100 ml
contractile force, mean ± ESM [3]: 48.25 ± 5.12%
